{"source": "patent US20240197869A1", "about": "“HYPERACTIVATORS OF MAMMALIAN DENDRITIC CELLS” (Corner Therapeutics, Inc., priority 2021, published 2024)", "key": {"[1]": {"experiment": "PAMP screen: viability of human moDCs with PRR agonist and 22:0 Lyso PC", "type": "cell-based", "conditions": "human, human monocyte-derived dendritic cells (moDCs), No PAMP, 20 μM 22:0 Lyso PC alone, human moDCs, read-out: Relative Viability (%) ± SD", "description": "Pathogen-Associated Molecular Pattern (PAMP) Screen. Innate immune signaling pathway agonists were purchased from Invivogen. Lyophilized stocks were reconstituted and stored according to manufacturer's instructions and at recommended concentrations. […] Innate immune signaling agonists were diluted in R10 media to the manufacturer's recommended working concentration and then added onto cells. 22:0 Lyso PC was then reconstituted from a lyophilized stock in R10 and then further diluted. The lipid was added onto cells at a final concentration of 20 μM. Cells were incubated for 2 days, then cultures were collected for endpoint analyses.\n(§1) Quantification of Cell Viability."}, "[2]": {"test_system": "human PBMCs", "experiment": "Cytokine secretion (IL-1β, IFNγ, TNFα) by human PBMCs", "type": "cell-based", "description": "(§2) Isolation of PBMCs from Whole Blood. PBMCs were isolated from whole blood using density gradient centrifugation with Ficoll-Paque PLUS (Cytivia). Whole blood was diluted 1:1 with PBS, layered on top of Ficoll-Paque PLUS and centrifuged at 1000×g for 30 minutes at room temperature. PBMCs were collected, washed twice in PBS, and incubated with Ack lysis buffer (Lonza) to remove any remaining red blood cells.\n(§3) Cell Culture and Stimulation. […] Cells were plated at 1×10^5 (canine cells) or 1×10^6 (human cells) per well in 96-well flat bottom tissue culture plates. Lyophilized Vaccigrade R848 (Invivogen) was reconstituted and diluted according to manufacturer's recommendations and added to cells at a final concentration of 1 μg/mL.\nQuantification of Cytokine Secretion. IL-1β secretion from human PBMCs was assessed using one of the following kits: ELISA MAX Deluxe Set Human IL-1β kit (Biolegend), Invitrogen Human IL-1β kit, or the Lumit™ Human IL-1β Immunoassay (Promega). IFNγ secretion from human PBMCs was assessed using the ELISA MAX Deluxe Set Human IFNγ (Biolegend) and TNFα secretion from human PBMCs was assessed using the Human TNFα Uncoated ELISA kit (Invitrogen). ELISAs were performed according to manufacturer's instructions with the following modifications: i) total sample+buffer volume for incubation was reduced from 100 μL to 50 μL; ii) the top standard was prepared at […], with two-fold dilutions to […]; and iii) sample incubation was completed overnight at 4 C on an orbital shaker. Lumit™ assays were performed according to manufacturer's instructions. IL-1β secretion from canine PBMCs was assessed using the Canine IL-1β/IL-1F2 DuoSet ELISA (R&D) according to manufacturer's instructions with the following modifications: i) total sample+buffer volume for incubation was reduced from 100 μL to 50 μL; ii) sample incubation was completed overnight at 4° C. on an orbital shaker. For all ELISAs, absorbance was measured at 450 nm, with a 570 nm correction, using a Spectramax M5e plate reader (Molecular Devices). For Lumit™ assays, luminescence was measured on all wavelengths using a Spectramax M5e plate reader (Molecular Devices) with an integration time of 500 ms. To determine cytokine concentrations in supernatants, sample concentrations were interpolated using a standard curve via 4PL analysis on GraphPad Prism 9 (GraphPad Software). The interpolated results of samples were then adjusted for any dilutions made to the supernatant."}, "[3]": {"test_system": "human PBMCs", "experiment": "Viability of human PBMCs (CellTiter-Glo)", "type": "cell-based", "conditions": "2 days post-activation; lipids combined with R848", "description": "as §2, §3, §1"}, "[4]": {"test_system": "human moDC", "experiment": "Viability of human moDC with surfactant formulations of 22:0 Lyso PC", "type": "cell-based", "conditions": "solvent evaporation method with KP407, filtered, target 82.5 uM + R848", "description": "Formulation of 22:0 Lyso PC with poloxamers. […] 22:0 Lyso PC was resuspended in the surfactant solution and agitated at 4° C. for an hour. Solutions were then brought to room temperature to form micelles. Using 10× concentrated PBS, salts were added to the solution to stabilize molecular interactions and provide physiologically relevant osmolarity. Lipid solutions were either left unfiltered or filtered through a pore size of 0.45 um to remove insoluble lipid flakes. Lipids were further diluted and added onto human moDC cell cultures along with 1 ug/mL R848. Targeted lipid concentrations were based on the scenario where the lipid is fully bio-available prior to filtration. However, filtration of insoluble lipid reduces the bio-available supply of lipid. Thus, IL-1beta as a measure of hyperactivity can be used as an indicator of 22:0 Lyso PC incorporation into micelles and thus into solution. One day after hyperactivation, cell culture supernatants are collected to measure cytokine secretion, and cells are used to measure viability via Cell Titer-Glo.\nSalts are added to the solution to stabilize the molecular interactions and bring the solution to a physiologically relevant osmolarity. The solutions are then either left unfiltered or filtered through a pore size of 0.45 um to remove insoluble lipid flakes or particle aggregates. […]"}, "[5]": {"test_system": "human monocyte-derived dendritic cells (moDCs)", "experiment": "DAMP screen: viability of human moDCs (CellTiter-Glo)", "protocol": "Danger-Associated Molecular Pattern (DAMP) Screen. After 6 days of differentiation into moDC, cells were collected and counted. Cells were plated at 100,000 cells/well in R10 media in 96-well flat bottom tissue culture-treated plates. LPS, serotype O55:B5 (Enzo Life Sciences) was added to a final concentration of 1 μg/mL in each well. […] Cells were incubated at 37° C., 5% CO2 for two days. Cell cultures were then used for endpoint analyses.\nEndpoint Analyses. After culturing moDCs with PAMPs and DAMPs for two days, supernatant and cell samples were collected for analysis.\nQuantification of Cell Viability. Cell viability was assessed by quantifying the presence of ATP as an indicator of metabolically active cells using the CellTiter-Glo Luminescent Cell Viability Assay (Promega). Metabolic activity was assessed following manufacturer's instructions. The CellTiter-Glo reagent was mixed with the cell pellets and remaining supernatant, and transferred to a white, opaque 96-well plate. Luminescence was measured on all wavelengths on a Spectramax iD3 plate reader (Molecular Devices) using an integration time of 500 ms. Percent viability was calculated relative to the control condition of moDCs treated with LPS."}, "[6]": {"conditions": "lipid combined with R848, 2 days"}}, "note": "Entries after “also recorded” stand apart in the source; their conditions may differ. Where two headings read alike, the source gives them in different places."}
{"smiles": "CCCCCCCCCCCCCCCCCCCCCC(=O)OC[C@@H](O)COP(=O)([O-])OCC[N+](C)(C)C", "note": "[22:0 LYSO PC, 1-behenoyl-2-hydroxy-sn-glycero-3-phosphocholine]", "values": [{"measurement": "viability at 2 days, 20 μM", "setting": "[1]; Table 1-7, 10 donors", "value": 120, "unit": "%"}, {"measurement": "viability at 2 days, 20 μM", "setting": "[1]; Table 1-8", "value": 120, "unit": "%"}, {"measurement": "IL-1β secretion (in words)", "setting": "[2]; lipid 82.5 μM combined with R848 1 μg/mL, 2 days", "value": "elevated; also recorded: comparable or higher"}, {"measurement": "IFNγ secretion, fold change per donor relative to R848 alone (in words)", "setting": "[2]; [6]", "value": "highest fold change per donor; also recorded: comparable or higher"}, {"measurement": "TNFα secretion, fold change per donor relative to R848 alone (in words)", "setting": "[2]; [6]", "value": "highest fold change per donor; also recorded: comparable or higher"}, {"measurement": "human PBMC viability (in words)", "setting": "[3]", "value": "remain viable"}, {"measurement": "reduction of cell viability", "setting": "[4]", "value": "approximately 25%"}, {"measurement": "Relative Viability (%) ± SD", "setting": "[5]; 41.3 μM lipid + LPS 1 μg/mL, 2 days, relative to LPS-treated moDCs, Table 1-2", "value": 47.6, "unit": "%"}, {"measurement": "Relative Viability (%) ± SD", "setting": "[5]; 82.5 μM lipid + LPS 1 μg/mL, 2 days, relative to LPS-treated moDCs, Table 1-1", "value": 14.6, "unit": "%"}, {"measurement": "Relative Viability (%) ± SD", "setting": "[5]; 82.5 μM lipid + LPS, selected lipids, Table 1-3 (repeats Table 1-1)", "value": 14.6, "unit": "%"}]}
